# Read-outs that look alike come from different tables or passages of the source. *1 amine or outer side, *2 acyl side, *3 side chain or, on linkers, in order; H or OH if unused. Where a SMILES comes first, the peptide text is derived from it. Bridges are numbered along the chain shown (N, C = ends). Roman numbers before positions name the chains, in order. [ ]: non-standard residue; d: D form. The star is where a group is joined. ξ: configuration not given here. X8 = C#CCOCCOCCOCCOCCN1CCN(C2C[C@@H](C(=O)[*:1])[C@H](C(=O)[*:2])C2)CC1; X10 = O=C([C@@H](N[*:1])[C@H](O)CCc1ccccc1)[*:2]; X2 = O=C([C@@H](N[*:1])[C@H](O)CCC(F)(F)F)[*:2]; Propargyl(OCH2CH2)4CO = C#CCOCCOCCOCCOCCC(=O)*; X11 = CCCCCCCC[C@@H](O)[C@H](N[*:1])C(=O)[*:2]; X1 = CCCCCC[C@@H](O)[C@H](N[*:1])C(=O)[*:2]; X3 = CCCCC[C@@H](O)[C@H](N[*:1])C(=O)[*:2]; Aoc(2) = CCCCCC[C@H](N)C(=O)O; Nle = CCCC[C@H](N)C(=O)O; ξF = NC(Cc1ccccc1)C(=O)O; Dab = NCC[C@H](N)C(=O)O; ξT = CC(O)C(N)C(=O)O; azaGly = NNC(=O)O
# Key:
# LPS from E. coli O111:B4 = experiment: LPS binding/neutralization by Limulus Amebocyte Lysate (LAL) assay; type: biochemical; details: LPS 1-10,000 ng/mL, test article 0.25-10 μM; for % LPS neutralization of TM: sum of AUCs relative to maximal AUC (Table 14)
# Description: The LAL assay (Charles River) was used to determine the binding affinity of test articles to LPS.
# (§1) For the assay, 25 μL purified LPS from E. coli O111:1B4 (Sigma) at doses ranging from 1-10,000 ng/mL were incubated with 25 μL of test article at concentrations ranging from 0.25-10 NM. After 5 min incubation at 37° C., 50 μL of LAL reagent, which reacts with lipid A portion from LPS, was added to corresponding wells. After 15 min, absorbance at 405 nm was read on EnSpire plate reader (Perkin Elmer). The % LPS neutralization is calculated relative to a PBS control (background) and LPS control at each concentration (positive control).
# LPS neutralization=(1−(absorbance test article−PBS with LAL reagent)/(absorbance no test article−PBS with LAL reagent))×100
# To obtain a single value of LPS neutralization for each test article, the area under the curve (AUC) for dose-response of test articles from […] for each LPS concentration was calculated using Prism 7 software. The % LPS neutralization is the sum of the AUCs for each LPS concentration determined relative to the maximal AUC achievable×100.
# as §1, with “O111:B4” for “O111:1B4”, “μM.” for “NM.”
# Ec 2469 = type: cell-based, Escherichia coli
# Description: (§2) Briefly, stock solutions of all antibacterial agents were prepared fresh in appropriate solvents (i.e. PBS, pH 7.4, DMSO, DI, etc.). Stock concentrations for drug conjugates were made at 12.5× the highest final assay concentration. All were serially diluted 2-fold, 8 or 12 times in a 96-well PCR plate (VWR cat. no. 83007-374). Bacterial cell suspensions generated from Mueller-Hinton agar (MHA) plate cultures were prepared in 0.85% saline and adjusted to ˜0.1 OD600 nm. […] For the conjugates, 92 μL of each cell suspension in RPMI B were added in the same 96-well plate assay format. […] Compounds were tested against a 14-strain panel comprised of E. coli (Ec), A. baumannii (Ab), P. aeruginosa (Pa), and K. pneumoniae (Kp) that were obtained from ATCC (Ec 25922, Ec 2489, Ab 19606, Pa 27853, Pa PAO1, Kp 43816, Kp 10031), Centers for Disease Control and Prevention (Ec AR0349), BEI Resources (Ab AB5075), Micromyx LLC (Ab 8990, Kp 6951), and Belgian Coordinated Collections of Microorganisms (Pa LES431) or generated in-house (Ec 25922 64X-1). […] E. coli strain ATCC 25922 and P. aeruginosa strain LES431 were run in the presence and absence of 50% heat-inactivated fetal bovine serum (FBS; Sigma, cat. no. F4135-100 mL). Plates were mixed by shaking then incubated at 35° C. overnight (16-20 h).
# Ec 25922 = type: cell-based, Escherichia coli
# Description: as §2
# Ab AB5075 = type: cell-based, Acinetobacter baumannii
# Description: as §2
# Pa 27853 = type: cell-based, Pseudomonas aeruginosa
# Description: as §2
# Pa LES431 = type: cell-based, Pseudomonas aeruginosa
# Description: as §2
# Pa PAO1 = type: cell-based, Pseudomonas aeruginosa
# Description: as §2
# Kp 10031 = type: cell-based, Klebsiella pneumoniae
# Description: as §2
# Kp 43816 = type: cell-based, Klebsiella pneumoniae
# Description: as §2
# Sa RN = type: cell-based
# Ec 25922 64X-1 (COL^R) = type: cell-based, Escherichia coli; details: media CA-MHB
# Description: (§3) Briefly, stock solutions of all antibacterial agents were prepared fresh in appropriate solvents (i.e. PBS, pH 7.4, DMSO, DI, etc.). Stock concentrations for drug conjugates were made at 12.5× the highest final assay concentration. All were serially diluted 2-fold, 8 or 12 times in a 96-well PCR plate (VWR cat. no. 83007-374). Bacterial cell suspensions generated from Mueller-Hinton agar (MHA) plate cultures were prepared in 0.85% saline and adjusted to ˜0.1 OD600 nm. Next, cell suspensions were diluted 1:200 in RPMI containing 5% Luria Broth (LB) to improve bacterial growth (BD Difco, cat. no. 244620) to a concentration of ˜5×10^5 CFU (colony-forming units)/mL. Due to poor solubility in Mueller-Hinton broth media, drug conjugates were evaluated in RPMI 1640 medium (+) L-glutamine, (+) sodium bicarbonate, pH 7.4 (“RPMI B”; Gibco, cat. no. 11875-085) as has been described as a more physiologically-relevant media for susceptibility testing of antibacterial compounds (1). For the conjugates, 92 μL of each cell suspension in RPMI B were added in the same 96-well plate assay format. […] Compounds were tested against a 14-strain panel comprised of E. coli (Ec), A. baumannii (Ab), P. aeruginosa (Pa), and K. pneumoniae (Kp) that were obtained from ATCC (Ec 25922, Ec 2489, Ab 19606, Pa 27853, Pa PAO1, Kp 43816, Kp 10031), Centers for Disease Control and Prevention (Ec AR0349), BEI Resources (Ab AB5075), Micromyx LLC (Ab 8990, Kp 6951), and Belgian Coordinated Collections of Microorganisms (Pa LES431) or generated in-house (Ec 25922 64X-1). […] E. coli strain ATCC 25922 and P. aeruginosa strain LES431 were run in the presence and absence of 50% heat-inactivated fetal bovine serum (FBS; Sigma, cat. no. F4135-100 mL). Plates were mixed by shaking then incubated at 35° C. overnight (16-20 h).
# Ec AR0349 (mcr-1, COL^R) = type: cell-based, Escherichia coli; details: media CA-MHB
# Description: as §3
# Ab 19606 (COLhet^R) = type: cell-based, Acinetobacter baumannii; details: media CA-MHB
# Description: as §3
# Ab 8990 (COL^R) = type: cell-based, Acinetobacter baumannii; details: Ab 8990 (COL^R); media CA-MHB
# Description: as §2
# Kp 6951 (COL^R) = type: cell-based, Klebsiella pneumoniae; details: Kp 6951 (COL^R); media CA-MHB
# Description: as §2
compound,measurement,setting,value
C#CCOCCOCCOCCOCCC(=O)N[C@@H](CCN)C(=O)N[C@H](C(=O)N[C@@H](CCN)C(=O)N[C@H]1CCNC(=O)[C@H]([C@@H](C)O)NC(=O)[C@H](CCN)NC(=O)[C@H](CCN)NC(=O)[C@H](CC(C)C)NC(=O)[C@@H](Cc2ccccc2)NC(=O)[C@H](CCN)NC1=O)[C@H](O)CCCCCCCC [Int-84] ({Propargyl(OCH2CH2)4CO}-[Dab][X11][Dab][Dab][Dab][dF]L[Dab][Dab]T; lactam 4-C),% LPS neutralization of TM,LPS from E. coli O111:B4,53.7%
C#CCOCCOCCOCCOCCC(=O)N[C@@H](CCCC)C(=O)N[C@@H](CCN)C(=O)N[C@H](C(=O)NNC(=O)N[C@H]1CCNC(=O)[C@H]([C@@H](C)O)NC(=O)[C@H](CCN)NC(=O)[C@H](CCN)NC(=O)[C@H](CC(C)C)NC(=O)[C@@H](Cc2ccccc2)NC(=O)[C@H](CCN)NC1=O)[C@H](O)CCCCC [Int-100] ({Propargyl(OCH2CH2)4CO}-[Nle][Dab][X3][azaGly][Dab][Dab][dF]L[Dab][Dab]T; lactam 5-C),% LPS neutralization of TM,LPS from E. coli O111:B4,38.9%
C#CCOCCOCCOCCOCCC(=O)N[C@@H](CCCCCC)C(=O)N[C@@H](CCN)C(=O)N[C@H](C(=O)NNC(=O)N[C@H]1CCNC(=O)[C@H]([C@@H](C)O)NC(=O)[C@H](CCN)NC(=O)[C@H](CCN)NC(=O)[C@H](CC(C)C)NC(=O)[C@@H](Cc2ccccc2)NC(=O)[C@H](CCN)NC1=O)[C@H](O)CCC(F)(F)F [Int-119] ({Propargyl(OCH2CH2)4CO}-[Aoc(2)][Dab][X2][azaGly][Dab][Dab][dF]L[Dab][Dab]T; lactam 5-C),MIC,Ec 2469,2 µg/mL
same,MIC,Ec 25922,2 µg/mL
same,MIC,Ab AB5075,1 µg/mL
same,MIC,Pa 27853,4 µg/mL
same,MIC,Pa LES431,4 µg/mL
same,MIC,Pa PAO1; PAO1,16 µg/mL
same,MIC,Kp 10031,2 µg/mL
same,MIC,Kp 43816,2 µg/mL
same,MIC,Sa RN,>128 µg/mL
"C#CCOCCOCCOCCOCCN1CCN(C2C[C@@H](C(=O)N[C@@H](CCCC)C(=O)N[C@@H](CCN)C(=O)N[C@H](C(=O)NNC(=O)N[C@H]3CCNC(=O)[C@H]([C@@H](C)O)NC(=O)[C@H](CCN)NC(=O)[C@H](CCN)NC(=O)[C@H](CC(C)C)NC(=O)C(Cc4ccccc4)NC(=O)[C@H](CCN)NC3=O)[C@@H](C)O)[C@H](C(=O)N[C@@H](CCCC)C(=O)N[C@@H](CCN)C(=O)N[C@H](C(=O)NNC(=O)N[C@H]3CCNC(=O)C(C(C)O)NC(=O)[C@H](CCN)NC(=O)[C@H](CCN)NC(=O)[C@H](CC(C)C)NC(=O)[C@@H](Cc4ccccc4)NC(=O)[C@H](CCN)NC3=O)[C@@H](C)O)C2)CC1 (stereo partly shown) [Int-105] (I: [Nle][Dab]T[azaGly][Dab][Dab][dF]L[Dab][Dab][ξT] / II: [Nle][Dab]T[azaGly][Dab][Dab][ξF]L[Dab][Dab]T; lactam I:5-I:C, II:5-II:C; linker I:N-II:N via X8)",MIC,"Ec 2469; Ec 2469, media CA-MHB",2 µg/mL
same,MIC,"Ec 25922; Ec 25922 + FBS (50%, heat-inactivated), media CA-MHB",0.5 µg/mL
same,MIC,"Ec 25922; Ec 25922, media CA-MHB",2 µg/mL
same,MIC,Ec 25922 64X-1 (COL^R),4 µg/mL
same,MIC,"Ec AR0349 (mcr-1, COL^R)",4 µg/mL
same,MIC,Ab 19606 (COLhet^R),2 µg/mL
same,MIC,Ab 8990 (COL^R),>128 µg/mL
same,MIC,"Ab AB5075; Ab AB5075, media CA-MHB",2 µg/mL
same,MIC,"Pa 27853; Pa 27853, media CA-MHB",4 µg/mL
same,MIC,"Pa LES431; Pa LES431 + FBS (50%, heat-inactivated), media CA-MHB",16 µg/mL
same,MIC,"Pa LES431; Pa LES431, media CA-MHB",2 µg/mL
same,MIC,"Pa PAO1; Pa PAO1, media CA-MHB",4 µg/mL
same,MIC,"Kp 10031; Kp 10031, media CA-MHB",2 µg/mL
same,MIC,"Kp 43816; Kp 43816, media CA-MHB",2 µg/mL
same,MIC,Kp 6951 (COL^R),32 µg/mL
same,% LPS neutralization of TM,LPS from E. coli O111:B4,33.2%
colistin sulfate,% LPS neutralization,LPS from E. coli O111:B4; sum of AUCs relative to maximal AUC (Table 15),9.21%
C#CCOCCOCCOCCOCCC(=O)N[C@@H](CCCC)C(=O)N[C@@H](CCN)C(=O)N[C@H](C(=O)N[C@@H](CCN)C(=O)N[C@H]1CCNC(=O)[C@H]([C@@H](C)O)NC(=O)[C@H](CCN)NC(=O)[C@H](CCN)NC(=O)[C@H](CC(C)C)NC(=O)[C@@H](Cc2ccccc2)NC(=O)[C@H](CCN)NC1=O)[C@H](O)CCCCC [Int-94] ({Propargyl(OCH2CH2)4CO}-[Nle][Dab][X3][Dab][Dab][Dab][dF]L[Dab][Dab]T; lactam 5-C),% LPS neutralization of TM,LPS from E. coli O111:B4,79.3%
C#CCOCCOCCOCCOCCC(=O)N[C@@H](CCN)C(=O)N[C@H](C(=O)N[C@@H](CCN)C(=O)N[C@H]1CCNC(=O)[C@H]([C@@H](C)O)NC(=O)[C@H](CCN)NC(=O)[C@H](CCN)NC(=O)[C@H](CC(C)C)NC(=O)[C@@H](Cc2ccccc2)NC(=O)[C@H](CCN)NC1=O)[C@H](O)CCc1ccccc1 [Int-83] ({Propargyl(OCH2CH2)4CO}-[Dab][X10][Dab][Dab][Dab][dF]L[Dab][Dab]T; lactam 4-C),% LPS neutralization of TM,LPS from E. coli O111:B4,30.9%
C#CCOCCOCCOCCOCCC(=O)N[C@@H](CCCC)C(=O)N[C@@H](CCN)C(=O)N[C@H](C(=O)N[C@@H](CCN)C(=O)N[C@H]1CCNC(=O)[C@H]([C@@H](C)O)NC(=O)[C@H](CCN)NC(=O)[C@H](CCN)NC(=O)[C@H](CC(C)C)NC(=O)[C@@H](Cc2ccccc2)NC(=O)[C@H](CCN)NC1=O)[C@H](O)CCCCCC [Int-80] ({Propargyl(OCH2CH2)4CO}-[Nle][Dab][X1][Dab][Dab][Dab][dF]L[Dab][Dab]T; lactam 5-C),% LPS neutralization of TM,LPS from E. coli O111:B4,55.7%
